Tests used:
[1] = target: T1, Recombinant Hepatic Lipase (Homo sapiens, UniProt P11150); test: Hepatic Lipase Phospholipase Assay (ThioPEG substrate, DTNB read at 412 nm); type: biochemical; conditions: recombinant HL 12.5 nM, 37° C., pH 8.3, read-out: IC50 (nM), hepatic lipase inhibition assay
T1 construct: made in house; host or cells: AV12 cells
T1 sequence (P11150 23-499): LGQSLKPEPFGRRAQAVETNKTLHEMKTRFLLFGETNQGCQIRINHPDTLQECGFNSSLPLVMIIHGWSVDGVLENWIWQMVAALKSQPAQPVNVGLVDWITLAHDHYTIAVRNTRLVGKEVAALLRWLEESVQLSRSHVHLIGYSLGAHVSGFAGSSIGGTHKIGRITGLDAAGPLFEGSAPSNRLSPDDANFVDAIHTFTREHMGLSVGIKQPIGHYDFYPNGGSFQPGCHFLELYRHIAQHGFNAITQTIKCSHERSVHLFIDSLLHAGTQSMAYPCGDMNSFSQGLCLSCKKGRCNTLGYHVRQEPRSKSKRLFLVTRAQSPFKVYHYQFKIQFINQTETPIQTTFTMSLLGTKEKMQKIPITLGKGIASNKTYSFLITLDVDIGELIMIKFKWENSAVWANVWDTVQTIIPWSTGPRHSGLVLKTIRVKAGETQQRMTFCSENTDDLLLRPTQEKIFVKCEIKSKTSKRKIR
Experimental: Hepatic Lipase Phospholipase Assay
Efficacy was determined by testing various compounds of the invention in a hepatic lipase and/or endothelial lipase assay discussed below, and disclosed in U.S. patent application Ser. No. 09/609, 871 filed Jul. 3, 2000 incorporated herein in its entirety for U.S Patent office purposes.
• Substrate Buffer A: 100 mM Hepes, pH 8.3 at 37° C. • Substrate Buffer B: 100 mM Hepes, pH 8.3 at 37° C. with 6.83 mM Triton X100 • ThioPEG: Molecular wt. of 540 • Recombinant Hepatic Lipase • Thiophospholipid: about 0.42 mM thiophospholipid in chloroform • DTNB Solution: about […] DTNB in DMSO (dimethyl sulfoxide) Hepes Buffer A
For Hepes Buffer A,.there is 2.4 g Hepes/100 mL water. Therefore 36 grams of Hepes is dissolved in 1500 mL of water. The mix solution's pH is adjusted to pH83 at 37° C. and brought up to 1500 mL with water. 500 mL of Buffer A is retained for the Protein Buffer.
To the remaining 1000 mL of Hepes Buffer A, 4.49 g of Triton X-100 is added and then the combination mixed on a stir plate. It is optimal that stock Buffer A not be too cold or Triton X-100 will take a long time to go into solution […]
The enzyme is stored at −80° C. in 100 or 50 μL portions. […] The enzyme should then be stored on ice until ready to use. […]

| Structure (SMILES) | IC50 [1] | melting point |
| --- | --- | --- |
| O=C(NCc1ccccc1)n1oc2ccccc2c1=O | 60 nM |  |
| CCNC(=O)n1oc2ccccc2c1=O [Example 1, 3-Oxo-3H-benzo[d]isoxazole-2-carboxylic acid ethylamide] |  | 112 to 113 °C |
| CCCCNC(=O)n1oc2ccccc2c1=O [Example 2, 3-Oxo-3H-benzo[d]isoxazole-2-carboxylic acid butylamide] |  | 64 to 65 °C |
| CCCCCCNC(=O)n1oc2ccccc2c1=O [Example 3, 3-Oxo-3H-benzo[d]isoxazole-2-carboxylic acid hexylamide] |  | 46 to 48 °C |
| CC(C)CCCCNC(=O)n1oc2ccccc2c1=O [Example 4, 3-Oxo-3H-benzo[d]isoxazole-2-carboxylic acid (5-methyl-hexyl)amide] |  | 73 to 75 °C |
| CCCCCCCCNC(=O)n1oc2ccccc2c1=O [Example 5, 3-Oxo-3H-benzo[d]isoxazole-2-carboxylic acid octylamide] |  | 47 to 48 °C |
| O=C(NCC1CCCCC1)n1oc2ccccc2c1=O [Example 6, 3-Oxo-3H-benzo[d]isoxazole-2-carboxylic acid cyclohexylmethyl-amide] |  | 82 to 84 °C |
| Cc1ccccc1CNC(=O)n1oc2ccccc2c1=O [Example 8, 3-Oxo-3H-benzo[d]isoxazole-2-carboxylic acid 2-methyl-benzylamide] |  | 154 to 155 °C |
| Cc1cccc(CNC(=O)n2oc3ccccc3c2=O)c1 [Example 9, 3-Oxo-3H-benzo[d]isoxazole-2-carboxylic acid 3-methyl-benzylamide] |  | 110 to 112 °C |
| O=C(NCc1ccccc1C(F)(F)F)n1oc2ccccc2c1=O [Example 11, 3-Oxo-3H-benzo[d]isoxazole-2-carboxylic acid 2-trifluoromethyl-benzylamide] |  | 139 to 141 °C |
| O=C(NCc1ccccc1F)n1oc2ccccc2c1=O [Example 12, 3-Oxo-3H-benzo[d]isoxazole-2-carboxylic acid 2-fluoro-benzylamide] |  | 142 to 143 °C |
| CCc1ccccc1CNC(=O)n1oc2ccccc2c1=O [Example 14, 3-Oxo-3H-benzo[d]isoxazole-2-carboxylic acid 2-ethyl-benzylamide] |  | 107 to 109 °C |
| CCc1cccc(CNC(=O)n2oc3ccccc3c2=O)c1 [Example 15, 3-Oxo-3H-benzo[d]isoxazole-2-carboxylic acid 3-ethyl-benzylamide] |  | 72 to 73 °C |
| CC(C)(C)c1ccc(CNC(=O)n2oc3ccccc3c2=O)cc1 [Example 16, 3-Oxo-3H-benzo[d]isoxazole-2-carboxylic acid 4-tert-butyl-benzylamide] |  | 123 to 125 °C |
| Cc1cccc(C(C)C)c1CNC(=O)n1oc2ccccc2c1=O [Example 17, 3-Oxo-3H-benzo[d]isoxazole-2-carboxylic acid 2-isopropyl-6-methyl-benzylamide] |  | 112 to 114 °C |
| COc1cccc(CNC(=O)n2oc3ccccc3c2=O)c1 [Example 18, 3-Oxo-3H-benzo[d]isoxazole-2-carboxylic acid 3-methoxy-benzylamide] |  | 99 to 100 °C |
| COc1ccc(CNC(=O)n2oc3ccccc3c2=O)cc1 [Example 19, 3-Oxo-3H-benzo[d]isoxazole-2-carboxylic acid 4-methoxy-benzylamide] |  | 140 to 141 °C |
| CCOc1ccccc1CNC(=O)n1oc2ccccc2c1=O [Example 20, 3-Oxo-3H-benzo[d]isoxazole-2-carboxylic acid 2-ethoxy-benzylamide] |  | 110 to 112 °C |
| CCOc1cccc(CNC(=O)n2oc3ccccc3c2=O)c1 [Example 21, 3-Oxo-3H-benzo[d]isoxazole-2-carboxylic acid 3-ethoxy-benzylamide] |  | 89 to 90 °C |
| CCOc1ccc(CNC(=O)n2oc3ccccc3c2=O)cc1 [Example 22, 3-Oxo-3H-benzo[d]isoxazole-2-carboxylic acid 4-ethoxy-benzylamide] |  | 110 to 112 °C |
| O=C(NCCc1ccccc1)n1oc2ccccc2c1=O [Example 23, 3-Oxo-3H-benzo[d]isoxazole-2-carboxylic acid phenethyl-amide] |  | 106 to 107 °C |

Source: patent US7217727B2, “Phospholipase inhibitors” (Eli Lilly and Company, priority 2003, dated 2007)
